According to PMC8413292, “Small-molecule polymerase inhibitor protects non-human primates from measles and reduces shedding” (Nature Communications, 2021):
“And” between values parts separate entries of the source, which are not always exact repeats. Equal entries are not always repeated.

Tests used:
MeV N gene RNA = assay: Quantitative RT-PCR of MeV N RNA in PBMCs; type: in vivo; conditions: for Supp. Figure 3a, relative MeV N RNA in PBMCs, group mean (Mean 2) / Supplemental Figure 3a source data, relative MeV N RNA in PBMCs, individual animals: therapeutic (d7)
Experimental: Organs (21 days post-infection) and PBMCs (twice a week) were frozen in RNAlater (Qiagen) at −80 °C until further processing. For the deceased animal, organs were frozen in RNAlater at the day of death. Lymph nodes were thawed on ice, transferred to TRIzol (ambion life technologies) and homogenized using a tissue homogenizer. Total RNA of lymph nodes and PBMCs was extracted following the TRIzol manufacturer’s protocol. RNA (1000 ng for lymph nodes; 110 ng for PBMCs) was then subjected to reverse transcription using random hexamer primers and Superscript III reverse transcriptase in accordance with the manufacturer’s protocols. Subsequent quantitative PCR (qPCR) was carried out using primer pairs specific for a fragment in the MeV N gene[23] or GAPDH gene(Supplementary Table 2) and the PowerUp SYBR Green Master Mix (Thermo Fisher Scientific) in an Applied Biosystems 7500 Real-Time PCR system. Samples were normalized for GAPDH. The comparative (ΔΔCt) Ct method was applied to determine relative amounts of N-encoding RNA present in samples from treated animals compared to those obtained from untreated control animals (lymph nodes) or compared to those obtained from untreated control animals on day 7 post-infection (peak PBMC virus titer).

[1] = Necropsy and histology (H&E) for pharmacotoxicity; type: in vivo
From the text: After euthanasia, each animal was examined for gross pathological changes, and samples were collected for histopathological examination. After fixation, all tissue samples were embedded in paraffin. Histology slices were mounted and stained using standard H&E staining techniques.

[2] = Trough serum concentration during 14-day b.i.d. oral treatment of infected squirrel monkeys; conditions: for ERDRP-0519 trough serum concentration: 50 mg/kg b.i.d. oral
Experimental: All animal experiments were carried out in compliance with the regulations of German animal protection laws and authorized by the Regierungspräsidium Darmstadt, Germany (Dezernat V54 – Veterinärwesen und Verbraucherschutz, Hilpertstrasse 31, 64295 Darmstadt). Adult male and female squirrel monkeys (Saimiri sciureus) were obtained from BioPRIM, 31450 Baziege, or CNRS 0846 Primatologie, 13790 Rousset, France. Each experimental group was housed in a separate room, and animals of the same sex were caged together within the respective groups. For the single-dose pharmacokinetic experiment, animals were anesthetized, and the drug was given through a stomach tube at a concentration of 50 mg/kg bodyweight. Blood samples were collected after 15, 30, and 60 min, and 2, 3, 6, and 24 h. For efficacy assessment, groups of 6 animals were left untreated or treated with 50 mg/kg of ERDRP-0519 twice daily for two weeks, starting either 12 h before or 3 or 7 days after intranasal infection with 10^6 TCID50 of MV/FrankfurtMain.DEU/17.11. Clinical signs, rectal temperature, and weight were recorded daily, and throat swabs and blood samples were collected before infection and twice weekly thereafter. On day 21 post-infection, the animals were euthanized, necropsied, and samples were collected for histological analysis.
Drug concentrations were determined using an internal standard and a reversed phase isocratic HPLC method with positive ion electrospray ionization (ESI) mass spectrometry detection (LC/MS/MS) on an AB-SCIEX API 5500 MS/MS instrument (5 μl injection volume). Pharmacokinetic parameters were estimated using WinNonlin 5.3 (Pharsight).

Cn1nc(C(F)(F)F)cc1C(=O)Nc1ccc(S(=O)(=O)N2CCCC[C@H]2CCN2CCOCC2)cc1 [ERDRP-0519]
Supp. Figure 3a, relative MeV N RNA in PBMCs, group mean (Mean 2) (MeV N gene RNA; Day 14): -7.135 | Supp. Figure 3a, relative MeV N RNA in PBMCs, group mean (Mean 2) (MeV N gene RNA; Day 17): -8.639 | Supp. Figure 3a, relative MeV N RNA in PBMCs, group mean (Mean 2) (MeV N gene RNA; Day 21): -9.558 | Supplemental Figure 3a source data, relative MeV N RNA in PBMCs, individual animals (MeV N gene RNA; time (d) 0): -14.3685 and -13.0066 and -11.8077 and -7.512 and -11.9115 and -10.2528 | Supplemental Figure 3a source data, relative MeV N RNA in PBMCs, individual animals (MeV N gene RNA; time (d) 3): -13.8644 and -13.9177 and -9.909 and -10.1407 and -11.3735 and -9.308 | Supplemental Figure 3a source data, relative MeV N RNA in PBMCs, individual animals (MeV N gene RNA; time (d) 7): -0.7497 and -4.549 and -6.525 and -1.948 and -0.04871 and -5.313 | Supplemental Figure 3a source data, relative MeV N RNA in PBMCs, individual animals (MeV N gene RNA; time (d) 10): -4.45 | Supp. Figure 3a, relative MeV N RNA in PBMCs, Mean Diff. (MeV N gene RNA; untreated vs. prophylactic, Day 0): -1.268 | Supp. Figure 3a, relative MeV N RNA in PBMCs, Mean Diff. (MeV N gene RNA; untreated vs. prophylactic, Day 3): 0.4295 | Supp. Figure 3a, relative MeV N RNA in PBMCs, Mean Diff. (MeV N gene RNA; untreated vs. prophylactic, Day 7): 11.48 | Supp. Figure 3a, relative MeV N RNA in PBMCs, Mean Diff. (MeV N gene RNA; untreated vs. prophylactic, Day 10): 11.3 | Supp. Figure 3a, relative MeV N RNA in PBMCs, Mean Diff. (MeV N gene RNA; untreated vs. prophylactic, Day 14): 6.945 | Supp. Figure 3a, relative MeV N RNA in PBMCs, Mean Diff. (MeV N gene RNA; untreated vs. prophylactic, Day 17): 2.967 | Supp. Figure 3a, relative MeV N RNA in PBMCs, Mean Diff. (MeV N gene RNA; untreated vs. prophylactic, Day 21): 0.4094 | Supp. Figure 3a, relative MeV N RNA in PBMCs, Mean Diff. (MeV N gene RNA; untreated vs. therapeutic (d3), Day 0): -0.325 | Supp. Figure 3a, relative MeV N RNA in PBMCs, Mean Diff. (MeV N gene RNA; untreated vs. therapeutic (d3), Day 3): 0.4421 | Supp. Figure 3a, relative MeV N RNA in PBMCs, Mean Diff. (MeV N gene RNA; untreated vs. therapeutic (d3), Day 7): 9.205 | Supp. Figure 3a, relative MeV N RNA in PBMCs, Mean Diff. (MeV N gene RNA; untreated vs. therapeutic (d3), Day 10): 8.257 | Supp. Figure 3a, relative MeV N RNA in PBMCs, Mean Diff. (MeV N gene RNA; untreated vs. therapeutic (d3), Day 14): 5.316 | Supp. Figure 3a, relative MeV N RNA in PBMCs, Mean Diff. (MeV N gene RNA; untreated vs. therapeutic (d3), Day 17): 3.169 | Supp. Figure 3a, relative MeV N RNA in PBMCs, Mean Diff. (MeV N gene RNA; untreated vs. therapeutic (d3), Day 21): 3.351 | Supp. Figure 3a, relative MeV N RNA in PBMCs, Mean Diff. (MeV N gene RNA; untreated vs. therapeutic (d7), Day 0): -2.049 | Supp. Figure 3a, relative MeV N RNA in PBMCs, Mean Diff. (MeV N gene RNA; untreated vs. therapeutic (d7), Day 3): -0.2124 | Supp. Figure 3a, relative MeV N RNA in PBMCs, Mean Diff. (MeV N gene RNA; untreated vs. therapeutic (d7), Day 7): 3.189 | Supp. Figure 3a, relative MeV N RNA in PBMCs, Mean Diff. (MeV N gene RNA; untreated vs. therapeutic (d7), Day 10): 3.285 | Supp. Figure 3a, relative MeV N RNA in PBMCs, Mean Diff. (MeV N gene RNA; untreated vs. therapeutic (d7), Day 14): 0.916 | Supp. Figure 3a, relative MeV N RNA in PBMCs, Mean Diff. (MeV N gene RNA; untreated vs. therapeutic (d7), Day 17): 0.1414 | Supp. Figure 3a, relative MeV N RNA in PBMCs, Mean Diff. (MeV N gene RNA; untreated vs. therapeutic (d7), Day 21): -0.1552 | histological signs of pharmacotoxicity ([1]; all monkeys, day 21, 50 mg/kg b.i.d. 14 days): No histological signs of pharmacotoxicity were detected | liver histology of the deceased animal versus untreated control ([1]; day 3 therapeutic group animal deceased day 15): no pathological alternations | ERDRP-0519 trough serum concentration ([2]; 0 days post-treatment, individual animals): 0 µM and 0.05627 µM and 0.03323 µM | ERDRP-0519 trough serum concentration ([2]; 3 days post-treatment, individual animals): 0.9158 µM and 2.53 µM and 4.796 µM and 7.1567 µM and 0.8139 µM and 7.176 µM and 3.758 µM and 1.907 µM and 3.569 µM and 2.058 µM and 2.606 µM and 7.006 µM and 2.984 µM and 1.541 µM and 2.285 µM | ERDRP-0519 trough serum concentration ([2]; 7 days post-treatment, individual animals): 0.9763 µM and 1.28 µM and 2.908 µM and 3.21 µM and 2.4548 µM and 4.759 µM and 3.323 µM and 2.832 µM and 2.134 µM and 0.6741 µM and 2.096 µM and 3.644 µM and 0.525 µM and 0.5703 µM | ERDRP-0519 trough serum concentration ([2]; 10 days post-treatment, individual animals): 1.654 µM and 2.228 µM and 2.832 µM and 4.4753 µM and 4.4 µM and 4.664 µM and 1.699 µM and 1.669 µM and 0.9989 µM and 0.9857 µM and 2.153 µM and 3.116 µM and 0.6949 µM and 1.573 µM and 0.608 µM | ERDRP-0519 trough serum concentration ([2]; 14 days post-treatment, individual animals): 0.08309 µM and 0.0727 µM and 0.355 µM and 0.6534 µM and 1.862 µM and 2.172 µM and 2.474 µM and 1.513 µM and 0.2417 µM and 0.676 µM and 1.412 µM and 0.1537 µM and 0.3267 µM and 0.02398 µM | concentration at 7 days post-infection ([2]; both, monkey, serum, oral, 50 mg/kg twice daily, ERDRP-0519 serum conc., therapeutic(d7) group, day 7 post-infection, individual animals): 0 nM | Mean drug plasma concentration of all animals over the full study period ([2]; monkey, in vivo): ~ 1.6 µM | drug accumulation on repeat-dosing ([2]; multi-dose b.i.d., 15 animals): does not result in ERDRP-0519 accumulation
